Measurements: patent US20070232575A1, “Treatment of Pulmonary Artery Hypertension with Dhea, Dheas, Dhea Analogs, or Dhea Derivatives” (priority 2004, published 2007)
Values joined by “and” are separate entries in the source; they are usually repeats but may differ in a detail not shown here. Equal entries are not always repeated. “Also recorded” adds a separate entry of the source.

Tests used:
[1] = test system: chronic hypoxic-pulmonary artery hypertension (CH-PAH); assay: Mean pulmonary arterial pressure (PAP) in chronic hypoxic (CH-PAH) rat model; type: in vivo; settings: for reversal of PA hypertension: in contrast to testosterone, estradiol, pregnenolone, protocol not restated; for effect on PAP, i.v. administration: 3 mg/kg, same intravascular protocol as for DHEA, CH-DHEA rats (so in the source)
Method: To study the mechanisms of PAH and its possible treatments, an animal model was utilized. The placement of rats in a hypobaric chamber for 7 to 21 days induced chronic hypoxia, resulting in CH-PAH, a useful model system for studying mammalian PAH.
The rat model experiments were performed as follows. Adult male Wistar rats (220-240 g) were randomized into five groups. […] Intravascular administration was performed via the catheter inserted in the right jugular vein.

[2] = test system: PASMCs from CH rats; assay: In vitro DHEA treatment of PASMCs, resting [Ca2+]i, with K channel blockers and pathway inhibitors; type: cell-based, rat; settings: for effect on the DHEA-induced [Ca2+]i decrease: DHEA plus blocker/inhibitor: IbTx, agitoxin-2, ODQ 10 μM, genistein 1 μM, 476485 1 μM, DTT
Method: The heart and lungs were removed and intrapulmonary arteries (IPAs) (150-300 μm of internal diameter) were then dissected. The adventitial and intimal layers were removed. For contraction experiments, rings (3 mm in length) were prepared.
As mentioned earlier, Ca^2+ is thought to play an important role in the response to chronic hypoxia. To measure the effects of DHEA on [Ca^2+]i of individual PASMCs, a [Ca^2+]i-sensitive fluorophore, indo-1 (Calbiochem, San Diego, Calif.), was employed. […] The recording system included a Nikon Diaphot inverted microscope fitted with epifluorescence.
To further examine how DHEA functions to decrease the [Ca^2+]i in PASMCs, the following experiment was performed.

Compound: C[C@]12CC[C@H](O)C[C@@H]1CC[C@@H]1[C@@H]2CC[C@]2(C)C(=O)CC[C@@H]12 [3β-hydroxy-5α-androstan-17-one]
- reversal of PA hypertension [1]: did reverse PA hypertension

Compound: C[C@H]1CC[C@@]2(C)C(=CC[C@@H]3[C@@H]2CC[C@]2(C)C(=O)CC[C@@H]32)C1 [3βmethyl-5-androsten-17-one]
- reversal of PA hypertension [1]: did reverse PA hypertension

Compound: Nc1ccncc1 [4-AP, 4-amino-pyridine]
- block of the DHEA-induced [Ca2+]i decrease ([2]; combined IbTx 100 nM and 4-AP 1 mM): 100%
- effect on the DHEA effect on resting [Ca2+]i ([2]; combined presence of 4-AP and IbTx): almost totally abolished

Compound: C[C@]12CC[C@H]3[C@@H](CC=C4C[C@@H](O)CC[C@@]43C)[C@@H]1CC[C@@H]2O [5-androsten-3β,17β-diol]
- reversal of PA hypertension [1]: did reverse PA hypertension

Compound: O[C@@H](CS)[C@@H](O)CS [DTT]
- effect on the DHEA-induced [Ca2+]i decrease [2]: totally inhibited; also recorded: suppressed; also recorded: inhibits the effect of DHEA
- elevation of the resting [Ca2+]i ([2]; DTT with DHEA, PASMCs): 23 nM

Compound: O=c1onc2cnc3ccccc3n12 [ODQ, 1H-[1,2,4]oxadiazolol[4,3,-a]quinoxalin-1-one]
- effect on the DHEA-induced [Ca2+]i decrease [2]: did not alter; also recorded: no effect

Compound: O=c1c(-c2ccc(O)cc2)coc2cc(O)cc(O)c12 [genistein, Genistein]
- effect on the DHEA-induced [Ca2+]i decrease [2]: did not alter; also recorded: no effect

Compound: CC(=O)[C@H]1CC[C@H]2[C@@H]3CC=C4C[C@@H](O)CC[C@]4(C)[C@H]3CC[C@]12C [pregnenolone]
- effect on PAP, i.v. administration [1]: did not reveal any effect

Compound: C[C@]12CC[C@H]3[C@@H](CCC4=CC(=O)CC[C@@]43C)[C@@H]1CC[C@@H]2O [testosterone]
- effect on PAP, i.v. administration [1]: did not reveal any effect

Compound: agitoxin-2
- effect on the DHEA-induced [Ca2+]i decrease [2]: no effect

Compound: iberiotoxin (QFTDVDCSVSKECWSVCKDLFGVDRGKCMGKKCRCYQ; UniProt P24663 1-37, looked up) [IbTx]
- inhibition of the DHEA-induced change of resting [Ca2+]i ([2]; DHEA 100 μM and IbTx 100 nM, 10 min, PASMCs from CH rats): 62% and 65%
- effect on the DHEA-induced [Ca2+]i decrease [2]: blocked
